Data from patent US20180133186A1, “PREVENTATIVE TREATMENT OF ALZHEIMER'S DISEASE” (priority 2016, published 2018).
Read-outs that look alike come from different tables or passages of the source.

Tests used:
ornithine decarboxylase = biological target: T1, ornithine decarboxylase (Mus musculus, UniProt P00860); test: Whole brain lysate metabolite levels related to ornithine decarboxylase activity; type: in vivo
T1 construct: from tissue; host or cells: brain of CVN-AD mice (in vivo dosing; whole brain lysates analysed for metabolites)
T1 sequence (P00860 1-461): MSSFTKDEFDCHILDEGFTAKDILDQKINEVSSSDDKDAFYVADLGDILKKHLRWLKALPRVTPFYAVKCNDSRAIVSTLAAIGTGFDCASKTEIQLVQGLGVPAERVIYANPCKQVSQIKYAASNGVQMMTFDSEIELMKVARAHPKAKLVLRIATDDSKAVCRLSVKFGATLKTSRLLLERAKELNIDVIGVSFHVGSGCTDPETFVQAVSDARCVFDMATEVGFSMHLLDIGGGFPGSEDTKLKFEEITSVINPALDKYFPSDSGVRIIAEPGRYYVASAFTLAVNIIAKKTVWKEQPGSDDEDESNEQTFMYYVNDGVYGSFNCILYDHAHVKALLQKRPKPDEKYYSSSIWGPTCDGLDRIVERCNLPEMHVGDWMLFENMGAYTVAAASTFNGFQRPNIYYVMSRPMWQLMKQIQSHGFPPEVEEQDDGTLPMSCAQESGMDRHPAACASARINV
Protocol: (§1) This example was carried out as schematically illustrated in FIG. 1. […] Brains from each mouse were harvested at the end the third day of the rotorod procedure. Brain tissue lysates from each mouse in the experiment were used to determine the levels of Abeta 40 and Abeta 42 peptides and brain metabolites.
Humans with Alzheimer's disease show elevation of these metabolites (Inoue K).

Metastatic liver = details: cited from earlier work
[1] = test system: Trypanosoma brucei gambiense; details: cited from earlier work; for effective dosage for successful treatment of trypanosomiasis: humans
Abeta peptides = test: Abeta 40 and Abeta 42 peptides in whole brain lysates of CVN-AD mice; type: in vivo, mouse; details: DFMO 0.3 or 30 mg/kg vs water, n=12
From the text: The average levels of soluble Abeta 42 peptide and soluble Abeta40 peptide (plus and minus the standard error of the mean) measured in whole brain lysates are shown in FIG. 3B. […] The number of mice for each group was 12.

melanoma [2] = details: 6 g/m^2/d oral escalated to 12 g/m^2/d, n = 24; cited from earlier work
Normal volunteers = details: cited from earlier work
CVN-AD mice [3] = type: in vivo
Protocol: as §1

melanoma [4] = details: cited from earlier work
CVN-AD mice [5] = test: 2-day radial arm water maze in CVN-AD mice; type: in vivo, mouse; details: n=12
From the text: Alzheimer's disease (CVN-AD) mice are modified non-human warm-blooded vertebrate animals in which a biologically active human APP polypeptide is expressed, and in which function of its inducible Nitric Oxide Synthase (iNOS) protein is reduced as compared to a non-modified animal. CVN-AD mice are described in U.S. Patent Publication No. 20090081128, the contents of which are incorporated by reference in their entirety. […] (2) Aβ deposition around blood vessels resembling pathology observed in humans with cerebral amyloid angiopathy ([…].); (3) hyperphosphorylated and aggregated mouse tau; neuronal loss; worsening behavioral deficits with time (Colton, C.); and (4) significant hippocampal and fornix volume loss (Badea, A.). […] This age in the CVN-AD mouse model is considered as representative of early Alzheimer's disease in humans (Colton, C.). The number of mice in each group is 12.

humans [6] = test: Predicted dosage for Alzheimer's Clinical Trial; type: in vivo, human; details: 6 mos-4 yrs
humans [7] = details: cited from earlier work
CVN-AD mice [8] = test system: CVN-AD mice
[9] = 30 mg/kg, average +/- sem, n = 11-12 mice
[10] = oral delivery [Lipton A] [Pasic T R]
[11] = 14. g/m^2/d (400 mg/kg/day) IV, n = 1055
[12] = 14.8 g/m^2/d (400 mg/kg/day) ORAL, n = 25
[13] = 2 g/m^2/d oral, n = 16, 75 days

## NCCC[C@](N)(C(=O)O)C(F)F [DFMO, alpha-difluoromethylornithine]
Ornithine decarboxylase; 30 mg/kg vs water only
  Observed difference, putrescine (p; significantly decreased with DFMO-treatment): p < 0.05
  Observed difference, spermidine (p; significantly decreased with DFMO-treatment): p < 0.01
Ornithine decarboxylase; [9]
  putrescine, CVN-AD brain lysate levels DFMO-treated: 0.49 ± 0.02 µM/g
  spermidine, CVN-AD brain lysate levels DFMO-treated: 12.2 ± 0.63 µM/g
Ornithine decarboxylase; DFMO treatment
  brain levels of putrescine compared to untreated CVN-AD mice: significantly lower
  brain levels of spermidine compared to untreated CVN-AD mice: significantly lower
  brain levels of spermine compared to untreated CVN-AD mice: significantly lower
Metastatic liver; 0.5 and 1 g/m^2/d IV
  Other toxicity detected, subjects affected: 0/3) at 0.5 and 1 g/m^2/d
  Ototoxicity, subjects affected: Ototoxicity (0/3) at 0.5
Metastatic liver; 2 g/m^2/d IV
  Other toxicity detected, subjects affected: (0/3) at 2 g/m^2/d
  Ototoxicity, subjects affected: Ototoxicity (3/3) at 2 g/m^2/d
Metastatic liver; [10]
  dose with dose limiting ototoxicity: 1500 mg/m^2/d
[1]; [11]
  Efficacy: clearance of trypanosomes: Prolonged clearance
  Efficacy: confirmed cured: 44% confirmed
  Efficacy: probable cure: cured, 45%
[1]; [12]
  Efficacy: clearance of brain trypanosomes: Partial clearance of
  Efficacy: death: weakness). No
  Efficacy: signs/symptoms of trypanosomiasis: Reduced
[1]; intravenous (IV)
  effective dosage for successful treatment of trypanosomiasis: 14800 mg/m2/d
[1]; orally
  effective dosage for successful treatment of trypanosomiasis: 14800 mg/m2/d
Abeta peptides
  average level of insoluble Abeta40 peptide in whole brain lysates: No significant change
  average level of insoluble Abeta 42 peptide in whole brain lysates: No significant change
  soluble Abeta 40 levels in whole brain lysates: statistically significantly decreased
Melanoma [2]
  Other toxicity detected (low grade): 67% (low grade)
  Ototoxicity, % of treated subjects: Ototoxicity in 50% of
  Ototoxicity, subjects affected: (12/24)
Normal volunteers; 0.5-3 g/m^2/d oral, n = 13
  Other toxicity detected: vomiting/diarrhea: Not study limiting
  dose above which ototoxicity is dose dependent, increasing toxicity: (12%); >1 g/m^2/d is
Normal volunteers; 0.5 g/m^2/d oral, same as placebo (12%)
  Ototoxicity: (9%) same as placebo
Normal volunteers; [10]
  dose with mild reversible ototoxicity (no adverse event grade assigned): 1000 mg/m^2/d
CVN-AD mice [3]; 0.3 mg/kg, 14 wks
  Dose limiting events: none
  On target in brain: yes
CVN-AD mice [3]; 10 mg/kg, 14 wks
  Dose limiting events: none
CVN-AD mice [3]; 10 mg/kg, 14 wks (data not shown)
  On target in brain: yes (data not
CVN-AD mice [3]; 30 mg/kg, 14 wks
  Dose limiting events: none
  On target in brain: yes
CVN-AD mice [3]; dose range 0.9 to 90 mg/m2/d
  adverse events in DFMO treated CVN-AD mice: No observable adverse events
Melanoma [4]; [13]
  Ototoxicity: Ototoxicity (10%)
  Ototoxicity trend with dose and duration: Increasing with dose
Melanoma [4]; oral delivery [Croghan M K]
  dose with mild ototoxicity: 2000 mg/m^2/d
CVN-AD mice [5]; 0.3 mg/kg (0.9 mg/m^2) oral gavage 3x/wk 14 weeks vs water only
  average number of errors in finding an escape platform after 2 days of trials, radial arm water maze: statistically significantly decreased
CVN-AD mice [5]; 30 mg/kg (92.5 mg/m^2) oral gavage 3x/wk 14 weeks vs water only
  average number of errors in finding an escape platform after 2 days of trials, radial arm water maze: more so
Humans [6]; estimated human dose 36 mg/m^2 daily
  Predicted Dose limiting effects: none
Humans [6]; estimated human dose 109 mg/m^2 daily
  Predicted Dose limiting effects: none
Humans [6]; estimated human dose 328 mg/m^2 daily
  Predicted Dose limiting effects: none
Humans [7]; 14. g/m^2/d IV, n = 1055
  Brain-based toxicity: deaths: 15 deaths
  Brain-based toxicity: seizures: (4%)
  Other toxicity detected: abdominal pain: pain (37.7%),
  Other toxicity detected: headache: (31.2%),
Humans [7]; 14.8 g/m^2/d ORAL, n = 25
  Other toxicity detected: diarrhea: (58.3%)
  Other toxicity detected: headache: (16.7%),
CVN-AD mice [8]; DFMO 0.3 or 30 mg/kg vs water only
  average number of seconds on the rotorod over 3 days of testing: No change
CVN-AD mice [8]; at the doses used (0.3, 30 mg/kg)
  toxic effect on motor skills: no toxic effect
